The source of these data is patent publication US8952008B2, “Chemical compounds” (Pfizer Limited, priority 2012, dated 2015).

Read-outs that look alike come from different tables or passages of the source.

Assay [1] concerns the target human recombinant GABA A receptor containing the alpha2, beta2, and gamma3 subunits (Homo sapiens, UniProt P47869+Q99928). Description: Radioligand competition binding assay with [3H]Ro-15-1788 (Flumazenil).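 Note: membranes from HEK cells expressing the receptor, incubated with radioligand to equilibrium, filter-bound radioactivity counted, Ki reported as geometric mean of replicate runs.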 In general terms: Displacement assays read how much labelled ligand stays bound in the presence of the test substance.
Protocol: Membranes were prepared from HEK cells expressing hGABA A alpha2beta2-gamma3 receptor, and validated to ascertain protein concentration, receptor expression and to determine the Kd of the flumazenil as well as the Ki of a standard set of compounds before being used to test new compounds.
100 ul of radioligand and 100 ul of membrane in 50 mM Tris-HCl and 0.05% F127 with 1 ul of test compound was incubated for 2 hours to allow the reaction to achieve equilibrium, and then harvested onto filter plates, dried and counted on a TopCount NXT. The data was analysed, and the Ki values were presented as the geometric mean of at least two replicates.
In assay [2] the target is GABRA2-GABRB2-GABRG2 chloride currents in HEK cells (Homo sapiens (Human), UniProt P18507+P47869). Description: QPatch electrophysiological recording, % enhancement of GABA current (α2 PAM). The class given is cell-based. The following applies: approximately EC10 GABA, −60 mV, whole-cell patch clamp. The procedure: Human Embryonic Kidney (HEK) cells were transfected with a GABRA2-GABRB2-GABRG2 construct using standard techniques.
For QPatch electrophysiology testing, cells were harvested from flasks by enzymatic dissociation and resuspended in serum-free medium. Cells were typically used for electrophysiological experiments within 24 to 72 hours after splitting.
(§1) Cell suspension containing HEK cells expressing GABRA2-GABRB2-GABRG2 was placed on the QPatch instrument in serum-free medium into the instrument's cell stirrer. The instrument washed the cells once using extracellular buffer and then dispensed them into the QPlate HT measurement plate at a concentration of 3-4-e6/ml. […] All recordings were made at room temperature (22-24° C.).
(§2) Current records were acquired at 1 KHz and filtered at 0.3 KHz using the Bessel filter. Series resistance compensation was set to 80% in the QPatch software.
(§3) All compounds were dissolved in dimethyl sulfoxide to make 30 mM or 10 mM stock solutions, which were then diluted to 1000 times the desired final concentration in dimethyl sulfoxide. These were diluted into extracellular solution to attain the final concentrations desired. […] This concentration of dimethyl sulfoxide was present in all samples.
(§4) Currents were recorded at −60 mV, using an approximately EC10 concentration of gamma-aminobutyric acid (GABA). This dose of gamma-aminobutyric acid was applied for 6 seconds and washed off using extracellular buffer as an unrecorded application using the pipetting system of the QPatch instrument. The same dose of gamma-aminobutyric acid was then applied for 9 seconds, then the test compound was co-applied with this dose of gamma-aminobutyric acid for 15 seconds, and washed off using the extracellular solution using the pipetting system of the QPatch instrument.
(§5) Compound effect (% enhancement of gamma-aminobutyric acid current) was calculated using the following formula: [((peak modulator current amplitude-leak)−(GABA current amplitude-leak))/(GABA current amplitude-leak)]*100, where ‘leak’ is leak current at −60 mV, ‘peak modulator current amplitude’ is the current elicited by co-application of gamma-aminobutyric acid and test compound, and ‘GABA current amplitude’ is the current elicited by application of gamma-aminobutyric acid alone.

Assay [3] concerns the target GABRA1-GABRB3-GABRG2 chloride currents in HEK cells (Homo sapiens (Human), UniProt P14867+P18507). Kind of assay: QPatch electrophysiological recording, % enhancement of GABA current (α1 PAM). The following applies: approximately EC10 GABA, −60 mV, whole-cell patch clamp. The assay is classed as cell-based. On the procedure:
as §1, §2, §3, §4, §5
The ability of the compounds of the formula (I) to modulate the GABA channels expressing the al subunit (or GABRA1) can also be measured using an assay analogous to that described above but replacing the GABRA2-GABRB2-GABRG2 gene construct with the GABRA1-GABRB3-GABRG2 gene construct. All other conditions remain the same including the same cell line and conditions for cell growth.
On the technique in general: In patch-clamp work, channel activity is measured electrically.

Chain of GABRA2-GABRB2-GABRG2 chloride currents in HEK cells (P47869 29-451): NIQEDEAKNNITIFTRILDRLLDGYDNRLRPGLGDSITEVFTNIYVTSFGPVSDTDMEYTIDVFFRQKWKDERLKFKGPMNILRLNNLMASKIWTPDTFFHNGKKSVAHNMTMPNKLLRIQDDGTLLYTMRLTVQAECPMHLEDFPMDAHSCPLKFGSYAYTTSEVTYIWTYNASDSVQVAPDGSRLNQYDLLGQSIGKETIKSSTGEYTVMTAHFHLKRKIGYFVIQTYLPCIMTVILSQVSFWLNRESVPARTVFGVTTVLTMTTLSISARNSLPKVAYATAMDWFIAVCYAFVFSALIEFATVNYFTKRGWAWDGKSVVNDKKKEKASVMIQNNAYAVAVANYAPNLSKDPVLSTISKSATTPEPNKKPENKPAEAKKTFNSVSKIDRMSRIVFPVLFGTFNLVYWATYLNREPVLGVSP
Chain of GABRA2-GABRB2-GABRG2 chloride currents in HEK cells (P47870 26-512 partner): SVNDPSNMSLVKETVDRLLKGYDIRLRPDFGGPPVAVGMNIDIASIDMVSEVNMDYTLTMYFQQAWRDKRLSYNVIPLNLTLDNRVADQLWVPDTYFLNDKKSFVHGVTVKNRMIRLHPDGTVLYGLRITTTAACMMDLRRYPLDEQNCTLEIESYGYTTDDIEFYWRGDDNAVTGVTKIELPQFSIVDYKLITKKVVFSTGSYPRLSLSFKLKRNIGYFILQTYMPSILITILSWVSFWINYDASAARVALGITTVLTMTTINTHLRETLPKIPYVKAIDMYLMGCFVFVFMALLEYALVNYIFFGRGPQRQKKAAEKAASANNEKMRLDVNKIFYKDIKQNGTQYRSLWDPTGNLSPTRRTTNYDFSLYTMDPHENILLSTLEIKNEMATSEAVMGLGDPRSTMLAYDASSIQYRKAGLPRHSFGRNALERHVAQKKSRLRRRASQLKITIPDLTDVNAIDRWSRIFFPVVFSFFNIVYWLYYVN
Chain of GABRA2-GABRB2-GABRG2 chloride currents in HEK cells (P18507 40-475): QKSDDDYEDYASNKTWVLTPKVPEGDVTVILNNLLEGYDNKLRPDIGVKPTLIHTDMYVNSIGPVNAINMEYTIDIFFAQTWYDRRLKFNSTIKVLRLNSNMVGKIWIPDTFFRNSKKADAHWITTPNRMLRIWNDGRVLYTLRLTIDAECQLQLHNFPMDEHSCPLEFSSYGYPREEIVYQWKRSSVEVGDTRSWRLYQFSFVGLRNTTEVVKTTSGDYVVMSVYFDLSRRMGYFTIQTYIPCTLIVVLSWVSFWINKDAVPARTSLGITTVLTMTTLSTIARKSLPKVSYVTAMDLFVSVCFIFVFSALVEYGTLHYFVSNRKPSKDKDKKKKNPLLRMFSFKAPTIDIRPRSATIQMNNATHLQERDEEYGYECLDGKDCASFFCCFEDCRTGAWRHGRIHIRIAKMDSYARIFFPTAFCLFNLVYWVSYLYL
Chain of GABRA1-GABRB3-GABRG2 chloride currents in HEK cells (P14867 28-456): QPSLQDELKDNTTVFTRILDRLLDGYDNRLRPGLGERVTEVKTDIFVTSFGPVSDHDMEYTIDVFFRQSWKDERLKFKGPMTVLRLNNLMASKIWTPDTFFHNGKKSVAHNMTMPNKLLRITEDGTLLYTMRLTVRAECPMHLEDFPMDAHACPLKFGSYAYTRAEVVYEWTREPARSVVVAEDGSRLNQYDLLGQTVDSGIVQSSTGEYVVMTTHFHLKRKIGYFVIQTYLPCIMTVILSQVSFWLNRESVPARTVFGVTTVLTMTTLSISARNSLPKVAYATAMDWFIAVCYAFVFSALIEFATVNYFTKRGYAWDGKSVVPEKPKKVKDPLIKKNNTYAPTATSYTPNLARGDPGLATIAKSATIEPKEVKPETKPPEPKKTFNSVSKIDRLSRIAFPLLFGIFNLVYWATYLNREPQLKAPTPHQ
Chain of GABRA1-GABRB3-GABRG2 chloride currents in HEK cells (P28472 26-473 partner): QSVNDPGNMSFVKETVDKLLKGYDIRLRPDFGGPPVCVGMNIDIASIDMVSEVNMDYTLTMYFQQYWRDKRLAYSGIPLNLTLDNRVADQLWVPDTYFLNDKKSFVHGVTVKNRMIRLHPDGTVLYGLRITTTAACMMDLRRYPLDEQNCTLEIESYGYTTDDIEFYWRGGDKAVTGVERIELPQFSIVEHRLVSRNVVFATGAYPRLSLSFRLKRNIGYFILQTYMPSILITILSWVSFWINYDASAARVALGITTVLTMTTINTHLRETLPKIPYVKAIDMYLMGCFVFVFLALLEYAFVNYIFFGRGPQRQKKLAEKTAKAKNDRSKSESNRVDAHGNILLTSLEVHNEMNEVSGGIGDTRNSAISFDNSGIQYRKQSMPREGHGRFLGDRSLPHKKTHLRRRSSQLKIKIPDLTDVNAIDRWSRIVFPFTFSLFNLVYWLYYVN
Chain of GABRA1-GABRB3-GABRG2 chloride currents in HEK cells (P18507 40-475): as the sequence (P18507 40-475) above

Usually Ki stands for the equilibrium dissociation constant of an inhibitor or competing ligand from its target. In the case of “7-Ethyl-4-[4-fluoro-3-(2-methyl-1,1-dioxido-2,3-di hydro-1,2-benzisothiazol-5-yl)phenyl]-7H-imidazo[4,5-d]pyridazine [Example 50]”, the Ki in assay [1] (read-out: GABA-α2 Ki, competition with [3H]Ro-15-1788, HEK cell membranes, geometric mean of at least two replicates) was determined as 69.5 nM.
Consider `CCn1cnc2c(-c3ccc(F)c(-c4ccc(S(N)(=O)=O)cc4)c3)cnnc21` [Example 3, 5′-(7-Ethyl-7H-imidazo[4,5-c]pyridazin-4-yl)-2′-fluorobiphenyl-4-sulfonamide], for which, in assay [2], the “α2 PAM (%)” value is reported as 27.6%. For the same compound, the “α1 PAM (%)” value in assay [3] was −51.1%.
Turning to `CCn1cnc2c(-c3ccc(F)c(-c4ccc(S(=O)(=O)CC)cc4OC)c3)cnnc21` [Example 4, 7-Ethyl-4-[4′-(ethylsulfonyl)-6-fluoro-2′-methoxybiphenyl-3-yl]-7H-imidazo[4,5-c]pyridazine], in assay [3], the “α1 PAM (%)” value is on record as 18.1%.
Take `CCn1cnc2c(-c3ccc(F)c(-c4ccc(S(=O)(=O)C(C)C)cc4C#N)c3)cnnc21` [Example 5, 5′-(7-Ethyl-7H-imidazo[4,5-c]pyridazin-4-yl)-2′-fluoro-4-(isopropylsulfonyl)-[1,1′-biphenyl]-2-carbonitrile]: the inhibitory constant (Ki) in assay [1] stood at 108 nM.
Same read-out and setting: then `CCn1cnc2c(-c3ccc(F)c(-c4ccc(S(=O)(=O)C5CCC5)cc4OC)c3)cnnc21` [Example 6, 4-(4′-(Cyclobutylsulfonyl)-6-fluoro-2′-methoxy-[1,1-biphenyl]-3-yl)-7-ethyl-7H-imidazo[4,5-c]pyridazine], with 9.51 nM.
On to `CCn1cnc2c(-c3ccc(F)c(-c4ccc(S(=O)(=O)NC)cc4)c3)cnnc21` [Example 8, 5′-(7-Ethyl-7H-imidazo[4,5-c]pyridazin-4-yl)-2′-fluoro-N-methylbiphenyl-4-sulfonamide], for which, in assay [2], the “α2 PAM (%)” value is 19.4%. Besides, the “α1 PAM (%)” value in assay [3] is given as −55.1%.
Regarding `CCn1cnc2c(-c3ccc(F)c(-c4ccc(S(C)(=O)=O)cc4)c3)cnnc21` [Example 9, 7-Ethyl-4-[6-fluoro-4′-(methylsulfonyl)biphenyl-3-yl]-7H-imidazo[4,5-c]pyridazine], the “α2 PAM (%)” value in assay [2] is given as 38.9%.
For `CCn1cnc2c(-c3ccc(F)c(-c4ccc(S(=O)(=O)CC)cc4F)c3)cnnc21` [Example 15, 4-(4′-Ethanesulfonyl-6,2′-difluoro-biphenyl-3-yl)-7-ethyl-7H-imidazo[4,5-c]pyridazine], in assay [2], the “α2 PAM (%)” value is on record as 39.4%.
With `CCn1cnc2c(-c3cccc(-c4ccc(S(C)(=O)=O)cc4)c3)cnnc21` [Example 16, 7-Ethyl-4-[4′-(methylsulfonyl)biphenyl-3-yl]-7H-imidazo[4,5-c]pyridazine], the Ki in assay [1] came out at 56 nM.
The same measure, in the same setting: the value for `CCn1cnc2c(-c3cccc(-c4ccc5c(c4)CCS5(=O)=O)c3)cnnc21` [Example 17, 4-[3-(1,1-dioxido-2,3-dihydro-1-benzothiophen-5-yl)phenyl]-7-ethyl-7H-imidazo[4,5-c]pyridazine] was 102 nM.
Still for that read-out and setting: then `CC(C)S(=O)(=O)c1ccc(-c2cc(-c3cnnc4c3ncn4C3CC3)ccc2F)c(C#N)c1` [Example 18], with 296 nM.
On to `NS(=O)(=O)c1ccc(-c2cc(-c3cnnc4c3ncn4C3CC3)ccc2F)cc1` [Example 20, 5′-(7-Cyclopropyl-7H-imidazo[4,5-c]pyridazin-4-yl)-2′-fluoro-[1,1′-biphenyl]-4-sulfonamide], for which the inhibition constant (Ki) in assay [1] amounted to 19 nM. Further, the “α2 PAM (%)” value in assay [2] is 36.3%.
As to `CCS(=O)(=O)c1ccc(-c2cc(-c3cnnc4c3ncn4C3CC3)ccc2F)c(F)c1` [Example 22, 7-Cyclopropyl-4-(4′-(ethylsulfonyl)-2′,6-difluoro-[1,1′-biphenyl]-3-yl)-7H-imidazo[4,5-c]pyridazine], the inhibition constant Ki in assay [1] amounted to 67.8 nM.
Take `COc1cc(S(=O)(=O)C(C)C)ccc1-c1cc(-c2cnnc3c2ncn3C2CC2)ccc1F` [Example 23, 7-Cyclopropyl-4-(6-fluoro-4′-(isopropylsulfonyl)-2′-methoxy-[1,1′-biphenyl]-3-yl)-7H-imidazo[4,5-c]pyridazine]: the Ki in assay [1] came to 40.5 nM.
For `CCS(=O)(=O)c1ccc(-c2cc(-c3cnnc4c3ncn4C3CCC3)ccc2F)c(F)c1` [Example 26, 7-Cyclobutyl-4-(4′-(ethylsulfonyl)-2′,6-difluoro-[1,1′-biphenyl]-3-yl)-7H-imidazo[4,5-c]pyridazine], in assay [1], the Ki came out at 147 nM.
On the same count and under the same terms, the value for `CCS(=O)(=O)c1ccc(-c2cc(-c3cnnc4c3ncn4C3(C)CC3)ccc2F)cc1` [Example 27, 4-[4′-(Ethylsulfonyl)-6-fluorobiphenyl-3-yl]-7-(1-methylcyclopropyl)-7H-imidazo[4,5-c]pyridazine] was 34.8 nM; that for `CCS(=O)(=O)c1ccc(-c2cc(-c3cnnc4c3ncn4C3CCC3)ccc2F)cc1` [Example 28, 7-Cyclobutyl-4-[4′-(ethylsulfonyl)-6-fluorobiphenyl-3-yl]-7H-imidazol[4,5-c]pyridazine] was 74.3 nM.
Still for that read-out and setting: then `CCCn1cnc2c(-c3ccc(F)c(-c4ccc(S(=O)(=O)CC)cc4)c3)cnnc21` [Example 30, 4-[4′-(Ethylsulfonyl)-6-fluorobiphenyl-3-yl]-7-propyl-7H-imidazo[4,5-d]pyridazine], with 120 nM; and `CC(C)n1cnc2c(-c3ccc(F)c(-c4ccc(S(=O)(=O)C(C)C)cc4C#N)c3)cnnc21` [Example 35, 2′-Fluoro-5′-(7-isopropyl-7H-imidazo[4,5-c]pyridazin-4-yl)-4-(isopropylsulfonyl)-[1,1′-biphenyl]-2-carbonitrile], with 38.8 nM; and `CC(C)n1cnc2c(-c3ccc(F)c(-c4ccc(S(=O)(=O)C(C)C)cc4F)c3)cnnc21` [Example 36, 4-(2′,6-Difluoro-4′-(isopropylsulfonyl)-[1,1′-biphenyl]-3-yl)-7-isopropyl-7H-imidazo[4,5-c]pyridazine], with 87.4 nM.
Still for that read-out and setting: the value for `CCS(=O)(=O)c1ccc(-c2cc(-c3cnnc4c3ncn4C(C)C)ccc2F)c(Cl)c1` [Example 39, 4-(2′-Chloro-4′-(ethylsulfonyl)-6-fluoro-[1,1′-biphenyl]-3-yl)-7-isopropyl-7H-imidazo[4,5-c]pyridazine] was 14.4 nM.
Regarding `CCS(=O)(=O)c1ccc(-c2cc(-c3cnnc4c3ncn4C(C)C)ccc2F)c(OC)c1` [Example 40, 4-(4′-(Ethylsulfonyl)-6-fluoro-2′-methoxy-[1,1′-biphenyl]-3-yl)-7-isopropyl-7H-imidazo[4,5-c]pyridazine], in assay [1], the inhibition constant (Ki) is 14 nM.
With `CCS(=O)(=O)c1ccc(-c2cc(-c3cnnc4c3ncn4C3CCCC3)ccc2F)c(OC)c1` [Example 43, 7-Cyclopentyl-4-(4′-(ethylsulfonyl)-6-fluoro-2′-methoxy-[1,1′-biphenyl]-3-yl)-7H-imidazo[4,5-c]pyridazine], the Ki in assay [1] came out at 118 nM.
`CCn1cnc2c(-c3ccc(OC)c(-c4ccc(S(=O)(=O)CC)cc4F)c3)cnnc21` [Example 44, 7-Ethyl-4-(4′-(ethylsulfonyl)-2′-fluoro-6-methoxy-[1,1′-biphenyl]-3-yl)-7H-imidazo[4,5-c]pyridazine]: the inhibitory constant (Ki) in assay [1] turned out to be 678 nM.
For the compound `CCn1cnc2c(-c3ccc(Cl)c(-c4ccc(S(=O)(=O)CC)cc4OC)c3)cnnc21` [Example 45, 4-(6-Chloro-4′-(ethylsulfonyl)-2′-methoxy-[1,1′-biphenyl]-3-yl)-7-ethyl-7H-imidazo[4,5-c]pyridazine], the “α2 PAM (%)” value in assay [2] was 61.1%.
Turning to `CCn1cnc2c(-c3ccc(OC)c(-c4ccc(S(=O)(=O)CC)cc4OC)c3)cnnc21` [Example 46, 7-Ethyl-4-(4′-(ethylsulfonyl)-2′,6-dimethoxy-[1,1′-biphenyl]-3-yl)-7H-imidazol[4,5-c]pyridazine], in assay [1], the Ki came out at 1750 nM.
Turning to `CCn1cnc2c(-c3ccc(C#N)c(-c4ccc(S(=O)(=O)CC)cc4OC)c3)cnnc21` [Example 47, 5-(7-Ethyl-7H-imidazo[4,5-c]pyridazin-4-yl)-4′-(ethylsulfonyl)-2′-methoxy-[1,1′-biphenyl]-2-carbonitrile], in assay [2], the “α2 PAM (%)” value is on record as 68.7%.
Still for that read-out and setting: then `CCn1cnc2c(-c3ccc(F)c(-c4ccc(S(=O)(=O)CC)cc4)c3)cnnc21` [Example 49, 7-Ethyl-4-[4′-(ethylsulfonyl)-6-fluorobiphenyl-3-yl]-7H-imidazo[4,5-d]pyridazine], with 83.9%.
